Laboratory results from the NIST ThermoML archive (doi:10.1021/acs.jced.6b00536).
± gives the expanded uncertainty stated by the source.

Test: xn = mol fraction of the nth substance listed
Details: Gas, Frequency=0.05 MHz, Single path-length method, x2 = 0.056

FC(F)(F)C(F)(F)C(F)(F)F [octafluoropropane] + FC(F)(F)C(F)(F)F
Details | speed of sound [m/s]
252.6 K, 87.5 kPa | 107.26 ± 0.1
252.6 K, 102.5 kPa | 106.66 ± 0.1
252.6 K, 119.8 kPa | 106.02 ± 0.1
252.6 K, 143.2 kPa | 105.14 ± 0.1
252.6 K, 173.7 kPa | 103.91 ± 0.1
252.6 K, 201.7 kPa | 102.77 ± 0.1
257.7 K, 88.9 kPa | 108.41 ± 0.1
257.7 K, 104.4 kPa | 107.85 ± 0.1
257.7 K, 122.1 kPa | 107.22 ± 0.1
257.7 K, 146.2 kPa | 106.37 ± 0.1
257.7 K, 177.3 kPa | 105.18 ± 0.1
257.7 K, 206.4 kPa | 104.1 ± 0.1
257.7 K, 234.4 kPa | 102.97 ± 0.1
262.8 K, 90.4 kPa | 109.57 ± 0.1
262.8 K, 106.6 kPa | 109.02 ± 0.1
262.8 K, 124.5 kPa | 108.41 ± 0.1
262.8 K, 148.9 kPa | 107.58 ± 0.1
262.8 K, 180.9 kPa | 106.46 ± 0.1
262.8 K, 210.8 kPa | 105.41 ± 0.1
262.8 K, 239.7 kPa | 104.33 ± 0.1
262.8 K, 276.7 kPa | 102.88 ± 0.1
267.9 K, 91.9 kPa | 110.71 ± 0.1
267.9 K, 108.6 kPa | 110.16 ± 0.1
267.9 K, 126.8 kPa | 109.58 ± 0.1
267.9 K, 151.8 kPa | 108.79 ± 0.1
267.9 K, 184.5 kPa | 107.7 ± 0.1
267.9 K, 215.2 kPa | 106.69 ± 0.1
267.9 K, 245.1 kPa | 105.66 ± 0.1
267.9 K, 283.1 kPa | 104.27 ± 0.1
273.1 K, 93.6 kPa | 111.83 ± 0.1
273.1 K, 110.7 kPa | 111.31 ± 0.1
273.1 K, 129.5 kPa | 110.76 ± 0.1
273.1 K, 154.8 kPa | 109.99 ± 0.1
273.1 K, 188.5 kPa | 108.94 ± 0.1
273.1 K, 220.5 kPa | 107.96 ± 0.1
273.1 K, 249.8 kPa | 106.97 ± 0.1
273.1 K, 290.4 kPa | 105.61 ± 0.1
278.2 K, 95.1 kPa | 112.94 ± 0.1
278.2 K, 112.5 kPa | 112.44 ± 0.1
278.2 K, 131.9 kPa | 111.89 ± 0.1
278.2 K, 157.6 kPa | 111.15 ± 0.1
278.2 K, 192.1 kPa | 110.13 ± 0.1
278.2 K, 224.8 kPa | 109.21 ± 0.1
278.2 K, 255 kPa | 108.24 ± 0.1
278.2 K, 296.7 kPa | 106.96 ± 0.1
283.2 K, 96.7 kPa | 114.02 ± 0.09
283.2 K, 114.4 kPa | 113.54 ± 0.09
283.2 K, 134 kPa | 113.01 ± 0.1
283.2 K, 160.5 kPa | 112.31 ± 0.1
283.2 K, 195.7 kPa | 111.31 ± 0.1
283.2 K, 229.1 kPa | 110.42 ± 0.1
283.2 K, 260.1 kPa | 109.49 ± 0.1
283.2 K, 303 kPa | 108.25 ± 0.1
288.3 K, 98.2 kPa | 115.1 ± 0.09
288.3 K, 116.5 kPa | 114.63 ± 0.09
288.3 K, 136.2 kPa | 114.12 ± 0.09
288.3 K, 163.5 kPa | 113.43 ± 0.1
288.3 K, 199.4 kPa | 112.48 ± 0.1
288.3 K, 233.4 kPa | 111.61 ± 0.1
288.3 K, 265.3 kPa | 110.72 ± 0.1
288.3 K, 309.2 kPa | 109.53 ± 0.1
293.3 K, 100.1 kPa | 116.16 ± 0.09
293.3 K, 118.3 kPa | 115.7 ± 0.09
293.3 K, 118.5 kPa | 115.72 ± 0.09
293.3 K, 138.4 kPa | 115.2 ± 0.09
293.3 K, 138.6 kPa | 115.22 ± 0.09
293.3 K, 166.2 kPa | 114.54 ± 0.09
293.3 K, 166.5 kPa | 114.55 ± 0.09
293.3 K, 203 kPa | 113.61 ± 0.1
293.3 K, 203.4 kPa | 113.63 ± 0.09
293.3 K, 237.8 kPa | 112.79 ± 0.1
293.3 K, 270.3 kPa | 111.92 ± 0.09
293.3 K, 271.3 kPa | 111.92 ± 0.09
293.3 K, 315.4 kPa | 110.77 ± 0.1
298.4 K, 101.4 kPa | 117.22 ± 0.09
298.4 K, 120.3 kPa | 116.79 ± 0.09
298.4 K, 140.7 kPa | 116.3 ± 0.09
298.4 K, 169.3 kPa | 115.65 ± 0.09
298.4 K, 206.9 kPa | 114.77 ± 0.09
298.4 K, 242.3 kPa | 113.97 ± 0.1
298.4 K, 275.6 kPa | 113.13 ± 0.1
298.4 K, 321.7 kPa | 112.02 ± 0.1
303.4 K, 102.9 kPa | 118.27 ± 0.09
303.4 K, 122.2 kPa | 117.85 ± 0.09
303.4 K, 143.1 kPa | 117.38 ± 0.09
303.4 K, 172.2 kPa | 116.75 ± 0.09
303.4 K, 210.6 kPa | 115.9 ± 0.09
303.4 K, 246.6 kPa | 115.1 ± 0.09
303.4 K, 280.7 kPa | 114.31 ± 0.1
303.4 K, 327.8 kPa | 113.24 ± 0.1
308.5 K, 104.4 kPa | 119.31 ± 0.09
308.5 K, 124.1 kPa | 118.88 ± 0.09
308.5 K, 145.4 kPa | 118.44 ± 0.09
308.5 K, 175.2 kPa | 117.83 ± 0.09
308.5 K, 214.1 kPa | 117 ± 0.09
308.5 K, 251 kPa | 116.24 ± 0.09
308.5 K, 285.8 kPa | 115.47 ± 0.09
308.5 K, 334 kPa | 114.43 ± 0.1
313.5 K, 105.9 kPa | 120.35 ± 0.09
313.5 K, 126 kPa | 119.93 ± 0.09
313.5 K, 147.7 kPa | 119.48 ± 0.09
313.5 K, 177.9 kPa | 118.9 ± 0.09
313.5 K, 217.6 kPa | 118.09 ± 0.09
313.5 K, 255.2 kPa | 117.36 ± 0.09
313.5 K, 290.9 kPa | 116.61 ± 0.09
313.5 K, 340 kPa | 115.6 ± 0.1
318.5 K, 107.5 kPa | 121.35 ± 0.09
318.5 K, 127.9 kPa | 120.96 ± 0.09
318.5 K, 150.1 kPa | 120.53 ± 0.09
318.5 K, 180.8 kPa | 119.96 ± 0.09
318.5 K, 221.2 kPa | 119.17 ± 0.09
318.5 K, 259.7 kPa | 118.47 ± 0.09
318.5 K, 296 kPa | 117.74 ± 0.09
318.5 K, 346.1 kPa | 116.75 ± 0.1
323.5 K, 109.2 kPa | 122.36 ± 0.09
323.5 K, 130 kPa | 121.97 ± 0.09
323.5 K, 152.5 kPa | 121.55 ± 0.09
323.5 K, 183.8 kPa | 121 ± 0.09
323.5 K, 225 kPa | 120.25 ± 0.09
323.5 K, 264.1 kPa | 119.56 ± 0.09
323.5 K, 301.1 kPa | 118.85 ± 0.09
323.5 K, 352.2 kPa | 117.91 ± 0.09
